Data from the NIST ThermoML archive (doi:10.1016/j.tca.2016.04.007).
± gives the expanded uncertainty stated by the source.

Key:
[1] = Crystal; DTA
[2] = Molar enthalpy of transition or fusion; conditions: Crystal; DSC

Normal melting temperature [1] [°C]	Molar enthalpy of transition or fusion [2] [kcal/mol]	SMILES
14.20 ± 3	10.9 ± 0.287	CCCCCCCCCCCCCCCCBr [1-bromohexadecane]
23.50 ± 3	12.9 ± 0.311	CCCCCCCCCCCCCCCCCCBr [1-bromooctadecane]
